Holding throughout (format): cell-based
Experiment [1] addresses T1, CGRP receptor (CLR-RAMP1) in RAMP1-HUVECs (Homo sapiens, UniProt O60894+Q16602).
T1 construct: biased agonism at the endogenous CLR in a physiological system; the open reading frame of RAMP1 into our HUVEC∆RAMP2 cell line; host or cells: HUVEC-∆RAMP2 (CRISPR-Cas9 RAMP2 knockout pool), lentiviral transduction, blasticidin selection
Put plainly: mobilisation of Ca2+i in RAMP1-HUVECs. On the procedure:
(§1) Data are analysed using a three-parameter non-linear regression curve or the operational model of receptor agonism. g–h Signalling bias plots were calculated as ∆Log(τ/KA) (g) or ∆∆Log(τ/KA) (h) for each agonist and for each signalling pathway. […] All data represent mean ± SEM for n repeats.
All cell lines were plated at 20,000 cells/well on 96-well black clear-bottom plates (Costar, UK) 24 h before the experiment. […] Cells were then washed twice with calcium-free HBSS, then were left in 100 μl calcium-free HBSS for the duration of the assay. […] Data was normalised to the response seen with 10 μM Ionomycin.
All sample sizes were determined, and data analysed, in accordance with the guidelines described by Curtis M et al.[65]. All experiments were appropriately controlled using ‘system pathway’ agonists. If any of these pathway controls generated inappropriate responses, then the entire data set was removed from analysis. […] Data analysis for cAMP accumulation, Ca^2+i mobilisation, NO accumulation, pERK1/2 activation, and cell proliferation assays were performed in GraphPad Prism 8.4 (GraphPad Software, San Diego). Data were fitted to obtain concentration–response curves using either the three-parameter logistic equation using to obtain values of Emax and pEC50 or the operational model of agonism. Statistical differences were analysed using one-way ANOVA followed by Dunnett’s post-hoc (for comparisons amongst more than two groups) or unpaired Student’s t test with Welch’s correction (for comparison between two groups).

Experiment [2] concerns the target T1, CGRP receptor (CLR-RAMP1) in RAMP1-HUVECs. In words: ERK1/2 phosphorylation in RAMP1-HUVECs. On the procedure: as §1
(§2) Primary cells were grown in 6 well plates, on the day of the experiment media was replaced with serum free media 4 h prior to cell harvesting. Tyrpsin-EDTA was used to dissociate the cells and they were collected by centrifugation, counted and re-suspended HBSS/BSA (0.1%). Ligands were also diluted in HBSS/BSA. Cells were then plated on 384 well plates in 8 μl aliquots at a density of 20,000 cells/well. Next, ligands were added (4 μl) for 5 min stimulation at room temperature. Cells were then lysed as per to the manufacturer’s instructions with 4 μl of lysis buffer (Cisbio phosphor-ERK1/2 cellular assay kit, Invitrogen, UK) for 30 min shaking at room temperature. The 2 specific antibodies; were pre-mixed in a 1:1 ratio. 4 μl of this was added to each well and the plate incubated for a further 2 h.
All sample sizes were determined, and data analysed, in accordance with the guidelines described by Curtis M et al.[65]. All experiments were appropriately controlled using ‘system pathway’ agonists. If any of these pathway controls generated inappropriate responses, then the entire data set was removed from analysis.

In experiment [3] the target is T2, CGRP receptor (CLR-RAMP1) in human cardiomyocytes (HCMs) (Homo sapiens, UniProt O60894+Q16602).
T2 construct: primary human cardiomyocytes (HCMs) since these cells only expressed CLR and RAMP1; host or cells: primary human cardiomyocytes (HCMs)
Put plainly: mobilisation of Ca2+i in HCMs. On the procedure:
(§3) Data are analysed using a three-parameter non-linear regression curve or the operational model of receptor agonism. g, h Signalling bias plots were calculated as ∆Log(τ/KA) (g) or ∆∆Log(τ/KA) (h) for each agonist and for each signalling pathway. […] All data represent mean ± SEM for n repeats.
All cell lines were plated at 20,000 cells/well on 96-well black clear-bottom plates (Costar, UK) 24 h before the experiment. […] Cells were then washed twice with calcium-free HBSS, then were left in 100 μl calcium-free HBSS for the duration of the assay. In conditions where Gαq/11/14 signalling is inhibited, cells were pre-treated with 100 nM YM-254890 (Alpha Laboratories, UK) (30 min)[22]. All assays were performed using the BD Pathway 855 Bioimaging Systems (BD Biosciences, UK), which dispenses ligands (20 μl) and reads immediately for 2 min. Data was normalised to the response seen with 10 μM Ionomycin.
(§4) All sample sizes were determined, and data analysed, in accordance with the guidelines described by Curtis M et al.[65]. All experiments were appropriately controlled using ‘system pathway’ agonists. If any of these pathway controls generated inappropriate responses, then the entire data set was removed from analysis. […] Data analysis for cAMP accumulation, Ca^2+i mobilisation, NO accumulation, pERK1/2 activation, and cell proliferation assays were performed in GraphPad Prism 8.4 (GraphPad Software, San Diego). Data were fitted to obtain concentration–response curves using either the three-parameter logistic equation using to obtain values of Emax and pEC50 or the operational model of agonism. Statistical differences were analysed using one-way ANOVA followed by Dunnett’s post-hoc (for comparisons amongst more than two groups) or unpaired Student’s t test with Welch’s correction (for comparison between two groups). To account for the day-to-day variation experienced from the cultured cells, we used the maximal level of cAMP accumulation from cells in response to 100 μM forskolin stimulation was used as a reference, 10 μM ionomycin for Ca^2+i assays, 10 μM phorbol 12-myristate 13-acetate (PMA) for pERK1/2 activation, 10 μM acetylcholine for NO production and 10 μM VEGF for cell proliferation. […] Where appropriate the operational model for receptor agonism[27] was used to obtain efficacy (τ) and equilibrium disassociation constant (KA) values. In both cases, this normalisation removes the variation due to differences in days but retains the variance for control values. The means of individual experiments were combined to generate the curves shown. Having obtained values for τ and KA these were then used to quantify signalling bias as the change in Log(τ/KA)[19],[28]. Error for this composite measure was propagated by applying Eq. 1.1 PooledSEM=(SEMA)^2+(SEMB)^2 Where, SEMA and SEMB are the standard error of measurement A and B.

The target in experiment [4] is T2, CGRP receptor (CLR-RAMP1) in human cardiomyocytes (HCMs). Put plainly: ERK1/2 phosphorylation in HCMs. The protocol:
as §3, §2, §4

The mark [5] stands for this setting: Ca2+i, RAMP1-HUVEC, operational model, mean ± SEM.
The mark [6] stands for this setting: pERK1/2, RAMP1-HUVEC, operational model, mean ± SEM.
Where [7] appears, read: Ca2+i, HCM, operational model, mean ± SEM.
Setting [8] is: pERK1/2, HCM, operational model, mean ± SEM.

The text below walks through data of paper PMC8222276 (Communications Biology, 2021).

T1 sequence (Q16602 23-461): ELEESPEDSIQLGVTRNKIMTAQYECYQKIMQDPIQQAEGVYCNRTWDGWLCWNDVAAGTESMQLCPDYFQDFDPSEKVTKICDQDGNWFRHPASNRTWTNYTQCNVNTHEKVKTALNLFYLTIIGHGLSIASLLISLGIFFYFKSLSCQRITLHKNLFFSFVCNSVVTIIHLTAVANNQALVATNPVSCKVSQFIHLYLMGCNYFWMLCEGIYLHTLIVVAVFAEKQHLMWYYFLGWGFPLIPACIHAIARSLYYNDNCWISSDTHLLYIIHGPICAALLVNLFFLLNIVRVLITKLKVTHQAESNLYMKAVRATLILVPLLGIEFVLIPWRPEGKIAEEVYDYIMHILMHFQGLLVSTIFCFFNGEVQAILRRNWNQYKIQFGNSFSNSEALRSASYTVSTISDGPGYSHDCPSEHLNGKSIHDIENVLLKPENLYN
T1 sequence (O60894 27-148): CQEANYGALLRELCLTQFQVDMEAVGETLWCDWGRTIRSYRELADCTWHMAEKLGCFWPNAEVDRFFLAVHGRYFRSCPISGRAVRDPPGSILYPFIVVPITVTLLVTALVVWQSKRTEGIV
T2 sequence (Q16602 23-461): as the sequence (Q16602 23-461) above
T2 sequence (O60894 27-148): as the sequence (O60894 27-148) above

Consider `CC[C@H](C)[C@H](NC(=O)[C@H](CCC(N)=O)NC(=O)[C@H](Cc1c[nH]cn1)NC(=O)[C@H](C)NC(=O)[C@H](CC(C)C)NC(=O)[C@H](CCCCN)NC(=O)[C@H](CCC(N)=O)NC(=O)[C@@H](NC(=O)[C@@H](NC(=O)[C@@H]1CSSC[C@H](NC(=O)CNC(=O)[C@H](Cc2ccccc2)NC(=O)[C@H](CO)NC(=O)[C@H](CCCNC(=N)N)NC(=O)[C@H](CC(C)C)NC(=O)CNC(=O)[C@H](CCC(N)=O)NC(=O)[C@H](Cc2ccccc2)NC(=O)[C@H](CC(N)=O)NC(=O)[C@H](CC(N)=O)NC(=O)[C@H](CCSC)NC(=O)[C@H](CO)NC(=O)[C@H](CCC(N)=O)NC(=O)[C@H](CCCNC(=N)N)NC(=O)[C@@H](N)Cc2ccc(O)cc2)C(=O)N[C@@H](CCCNC(=N)N)C(=O)N[C@@H](Cc2ccccc2)C(=O)NCC(=O)N[C@@H]([C@@H](C)O)C(=O)N1)[C@@H](C)O)C(C)C)C(=O)N[C@@H](Cc1ccc(O)cc1)C(=O)N[C@@H](CCC(N)=O)C(=O)N[C@@H](Cc1ccccc1)C(=O)N[C@H](C(=O)N[C@@H](CC(=O)O)C(=O)N[C@@H](CCCCN)C(=O)N[C@@H](CC(=O)O)C(=O)N[C@@H](CCCCN)C(=O)N[C@@H](CC(=O)O)C(=O)N[C@@H](CC(N)=O)C(=O)N[C@H](C(=O)N[C@@H](C)C(=O)N1CCC[C@H]1C(=O)N[C@@H](CCCNC(=N)N)C(=O)N[C@@H](CO)C(=O)N[C@@H](CCCCN)C(=O)N[C@H](C(=O)N[C@@H](CO)C(=O)N1CCC[C@H]1C(=O)N[C@@H](CCC(N)=O)C(=O)NCC(=O)N[C@@H](Cc1ccc(O)cc1)C(N)=O)[C@@H](C)CC)C(C)C)[C@@H](C)O` [AM, adrenomedullin], for which the Emax in experiment [1] (Ca2+i, RAMP1-HUVEC, relative to 10 μM ionomycin, mean ± SEM, read-out: Emax) worked out at 44.1 ± 1.42%; in experiment [2] (pERK1/2, RAMP1-HUVEC, 5 min, relative to 10 μM PMA, mean ± SEM, read-out: Emax), 47.6 ± 1.48%; in experiment [3] (Ca2+i, HCM, relative to 10 μM ionomycin, mean ± SEM, read-out: Emax), 58.12 ± 0.15%; in experiment [4] (pERK1/2, HCM, 5 min, relative to 10 μM PMA, mean ± SEM, read-out: Emax), 40.1 ± 2.02%.

In the case of `CSCC[C@H](NC(=O)[C@H](CC(C)C)NC(=O)[C@H](CCC(N)=O)NC(=O)[C@H](Cc1c[nH]c2ccccc12)NC(=O)[C@H](CC(C)C)NC(=O)[C@H](CCCNC(=N)N)NC(=O)[C@H](Cc1c[nH]cn1)NC(=O)[C@H](CO)NC(=O)[C@H](CC(C)C)NC(=O)[C@H](CC(N)=O)NC(=O)[C@H](CCC(N)=O)NC(=O)[C@@H](NC(=O)[C@H](CCC(N)=O)NC(=O)[C@@H]1CSSC[C@H](NC(=O)CNC(=O)[C@@H](NC(=O)[C@H](CCCNC(=N)N)NC(=O)[C@H](CC(C)C)NC(=O)[C@H](CC(C)C)NC(=O)[C@H](CCC(N)=O)NC(=O)[C@H](C)NC(=O)[C@H](CCC(N)=O)NC(=O)[C@@H](N)[C@@H](C)O)C(C)C)C(=O)N[C@@H](C(C)C)C(=O)N[C@@H](CC(C)C)C(=O)NCC(=O)N[C@@H]([C@@H](C)O)C(=O)N1)C(C)C)C(=O)NCC(=O)N1CCC[C@H]1C(=O)N[C@@H](C)C(=O)NCC(=O)N[C@@H](CCCNC(=N)N)C(=O)N[C@@H](CCC(N)=O)C(=O)N[C@@H](CC(=O)O)C(=O)N[C@@H](CO)C(=O)N[C@@H](C)C(=O)N1CCC[C@H]1C(=O)N[C@H](C(=O)N[C@@H](CC(=O)O)C(=O)N1CCC[C@H]1C(=O)N[C@@H](CO)C(=O)N[C@@H](CO)C(=O)N1CCC[C@H]1C(=O)N[C@@H](Cc1c[nH]cn1)C(=O)N[C@@H](CO)C(=O)N[C@@H](Cc1ccc(O)cc1)C(N)=O)C(C)C` [AM2, adrenomedullin 2], the Emax in experiment [1] is 41 ± 2.26%; in experiment [2], 45.4 ± 2.89%; in experiment [3], 36.5 ± 2.31%; in experiment [4], 40.4 ± 4.17%. Further, the “Transducer coefficient Log(τ/KA)” value in experiment [1] (Ca2+i, RAMP1-HUVEC, calculated from Table S2) is given as 5.46±0.19; in experiment [2] (pERK1/2, RAMP1-HUVEC, calculated from Table S2), 6.50±0.15; in experiment [3] (Ca2+i, HCM, calculated from Table S2), 7.61±0.35; in experiment [4] (pERK1/2, HCM, calculated from Table S2) it was 5.32±0.20. Moreover, the logτ is recorded as -0.18±0.06 in experiment [1] (setting [5]), -0.06±0.05 in experiment [2] (setting [6]), -0.30±0.05 in experiment [3] (setting [7]) and -0.20±0.08 in experiment [4] (setting [8]). Moreover, the pKA was determined as 5.64±0.18 in experiment [1] (setting [5]), 6.56±0.14 in experiment [2] (setting [6]), 7.91±0.35 in experiment [3] (setting [7]) and 5.52±0.18 in experiment [4] (setting [8]).

By Emax is commonly meant the maximal effect, on the per cent scale that the assay sets.
